In patent US20060263802A1 (priority 2003, published 2006):
Entries after “also recorded” stand apart in the source; their conditions may differ.

Tests used:
Assay type in all cases: binding
[1] = test system: human monoclonal antibody CR57
[2] = test system: human monoclonal antibody CR57; remark: listed apart in the source
[3] = test system: human monoclonal antibody CRJB
[4] = test system: human monoclonal antibody CRJB; remark: listed apart in the source
[5] = test system: human monoclonal antibody CRJA
[6] = test system: human monoclonal antibody CRJA; remark: listed apart in the source

Row | Sequence | Binding of CR57 (10 μg/ml) to looped/cyclic peptide (PEPSCAN-ELISA signal) [1] | Binding of CR57 to linear peptide (PEPSCAN-ELISA signal) [2] | Binding of CRJB (10 μg/ml) to looped/cyclic peptide (PEPSCAN-ELISA signal) [3] | Binding of CRJB to linear peptide (PEPSCAN-ELISA signal) [4] | Binding of CRJA (10 μg/ml) to looped/cyclic peptide (PEPSCAN-ELISA signal) [5] | Binding of CRJA to linear peptide (PEPSCAN-ELISA signal) [6] | Binding of CR57 (10 μg/ml) to looped/cyclic peptide (PEPSCAN-ELISA) [1] | Binding of CRJB (10 μg/ml) to looped/cyclic peptide (PEPSCAN-ELISA) [3] | Binding of CRJA (10 μg/ml) to looped/cyclic peptide (PEPSCAN-ELISA) [5] | binding of antibody CR57 to linear peptide (PEPSCAN OD) [2] | binding of antibody CR57 to looped/cyclic peptide (PEPSCAN OD) [1] | binding of antibody CRJB to looped/cyclic peptide (PEPSCAN OD) [3]
1 | TPDACRAAYNWKMAG | 125 | 92 | 90 | 132 | 111 | 132 | – | – | – | – | – | –
2 | LESSVIPLVHPLADP | – | 90 | – | 128 | – | 110 | 120 | 128 | 114 | – | – | –
3 | PRYEESLHNPYPDYR | 92 | 73 | 79 | 115 | 99 | 103 | – | – | – | – | – | –
4 | CKLKLCGVLGLRLMD | – | 410 | – | 111 | – | 88 | 64 | 74 | 91 | bound | – | –
5 | SSVIPLVHPLADPST | – | 73 | – | 104 | – | 60 | 120 | 80 | 45 | – | – | –
6 | SLKGACKLKLCGVLG | – | 200 | – | 111 | – | 99 | 129 | 79 | 106 | bound | – | –
7 | FVGYVTTTFKRKHFR | 117 | 70 | 82 | 111 | 102 | 79 | – | – | – | – | – | –
8 | HDYTIWMPENPRLGM | 88 | 82 | 96 | 125 | 97 | 110 | – | – | – | – | – | –
9 | WMPENPRLGMSCDIF | 199 | 88 | 206 | 113 | 164 | 97 | – | – | – | – | clearly bound | display reactivity; also recorded: clearly bound
10 | WLRTVKTTKESLVII | 55 | 41 | 78 | 104 | 78 | 85 | – | – | – | – | – | –
11 | LPSKGCLRVGGRCHP | – | 77 | – | 119 | – | 58 | 80 | 85 | 52 | – | – | –
12 | DEIEHLVVEELVRKR | – | 94 | – | 123 | – | 90 | 113 | 106 | 106 | – | – | –
13 | MQSSLLQQHMELLES | – | 65 | – | 113 | – | 113 | 72 | 90 | 99 | – | – | –
14 | EAENYTNFVGYVTTT | 55 | 69 | 60 | 117 | 54 | 62 | – | – | – | – | – | –
15 | YTILDKLGPWSPIDI | 75 | 48 | 73 | 114 | 91 | 93 | – | – | – | – | – | –
16 | ALESIMTTKSVSFRR | – | 97 | – | 132 | – | 107 | 136 | 111 | 108 | – | – | –
17 | SDEIEHLVVEELVRK | – | 101 | – | 117 | – | 97 | 96 | 85 | 99 | – | – | –
18 | SSTYCSTNHDYTIWM | 96 | 76 | 66 | 107 | 90 | 71 | – | – | – | – | – | –
19 | GSETCGFVDERGLYK | – | 57 | – | 115 | – | 56 | 64 | 71 | 64 | – | – | –
20 | SVSFRRLSHLRKLVP | – | 64 | – | 123 | – | 101 | 94 | 84 | 98 | – | – | –
21 | LLQQHMELLESSVIP | – | 78 | – | 111 | – | 80 | 123 | 129 | 165 | – | – | –
22 | LRVGGRCHPHVNGVF | – | 104 | – | 143 | – | 104 | 99 | 105 | 96 | – | – | –
23 | GKRASKGSETCGFVD | – | 92 | – | 124 | – | 97 | 82 | 71 | 93 | – | – | –
